Results taken from patent publication US20180161262A1, “Cosmetic Method and Dermatological Topical Agent for Use Therein, Migration Imparting Agent, and Method for Screening Components for Use in Cosmetic Method for Improving Skin State” (ROHTO PHARMACEUTICAL CO., LTD., priority 2015, published 2018).

Tests used:
[1] = tested on: human adipose-derived stem cells; assay: Confirmation test for migration imparting effect (96-well Boyden chamber, Calcein-AM fluorescence); assay type: cell-based; conditions: 20 hours; for Migration imparting effect, Ratio to blank (%): blank = 100%
Experimental: A medium of human adipose-derived stem cells (manufactured by Kurabo Industries Ltd.; cultured to the 7th passage in STEMLIFE medium [provided by Lifeline Cell Technology]) was replaced with DMEM/F12 medium (manufactured by Life Technologies Corp.), followed by culture for additional 20 hours.
(§1) Meanwhile, a medium in which a sample to be examined for the presence or absence of the migration imparting effect was dissolved at a predetermined concentration was prepared by using 0.1% by volume of fetal bovine serum (nutritional source). Also, DMEM/F12 medium containing 0.1% by volume of fetal bovine serum and not containing the sample (blank) was provided.
Then, the prepared medium was supplied at 200 μL per well to lower wells of a 96-well Boyden chamber (manufactured by Corning Inc., model number: 3384) having a membrane pore size of 8 μm. Also, the human adipose-derived stem cells cultured for 20 hours in the DMEM/F12 medium were inoculated at 30000 cells per well to upper wells of the Boyden chamber and cultured at 37° C. for 20 hours under 5% by volume of CO2.
1.2 μL/mL of Calcein-AM (fluorescent dye, manufactured by Molecular Probes/Thermo Fisher Scientific Inc.) dissolved at 1.66 mg/mL in DMSO (manufactured by Wako Pure Chemical Industries, Ltd.) was added to 10× cell dissociation solution (cell dissolution solution, manufactured by Trevigen Inc.) diluted 10-fold with sterilized water to thereby prepare an index solution for fluorescence emission having the correlation between the number of human adipose-derived stem cells and the strength of fluorescence emission.
The media in the upper and lower wells were taken out of the Boyden chamber and washed with PBS(−) (manufactured by Dojindo Laboratories), and then, the index solution for fluorescence emission was supplied at 100 μL per well to the lower wells and incubated at 37° C. for 1 hour under 5% by volume of CO2 in the dark. Then, the index solution in the lower wells after the incubation was transferred to a 96-well plate (manufactured by Greiner Bio One International GmbH) having black walls and a transparent bottom, and fluorescence intensity (excitation wavelength: 485 nm, detection wavelength: 520 nm) was measured. Each test was conducted in triplicate (n=3).
Specifically, since there is a correlation between the number of human adipose-derived stem cells and the strength of fluorescence emission as mentioned above, the presence or absence of the migration imparting effect was confirmed by determining increase or decrease in the fluorescence intensity of the lower wells by using the fluorescence intensity obtained by the assay of the blank as a reference (100%). As for the determination of the presence or absence of migration, the “migration imparting effect was present” was determined provided that the rate of stem cell migration (rate of increase with respect to the blank) was 5% or more (score + or more) according to the score shown in Table 1 below.
(§2) It is known that the doubling time of the present cells is usually 24 hours or longer, and in the confirmation test for the migration imparting effect, the human adipose-derived stem cells are taken out 20 hours after inoculation and washed, followed by the measurement of the strength of fluorescence emission. Accordingly, in this test, the growth effect of the human adipose-derived stem cells themselves is not included, and only increase in cells by migration is evaluated. On the other hand, in the confirmation test for the growth promoting effect, absorbance 72 hours after inoculation of the human adipose-derived stein cells is measured, and increase in cells by self-growth is simply evaluated.

[2] = tested on: human adipose-derived stem cells; assay: Confirmation test for growth promoting effect (WST-8 method, Cell Counting Kit-8); assay type: cell-based; conditions: 72 hours; for Growth promoting effect, Ratio to blank (%): blank = 100%
Experimental: as §1, with “A” for “Meanwhile, a”, “using DMEM/F12 medium (manufactured by Life Technologies Corp.) containing” for “using”, “serum.” for “serum (nutritional source).”, “unsupplemented with” for “and not containing”
Then, human adipose-derived stem cells (manufactured by Kurabo Industries Ltd.; cultured to the 5th passage in STEMLIFE medium [provided by Lifeline Cell Technology]) were inoculated at 3000 cells per well with the prepared medium to a 96-well plate and cultured at 37° C. for 72 hours under 5% by volume of CO2, and then, respiratory activity of the cells was measured as an index for whether or not the cells were activated, by the WST-8 method using Cell Counting Kit-8 (manufactured by Dojindo Laboratories). Specifically, after the human adipose-derived stem cells were cultured for 72 hours, the medium of each well was replaced with DMEM/F12 medium containing Cell Counting Kit-8, which was then incubated at 37° C. for 4 hours under 5% by volume of CO2 in the dark, and then, absorbance at a wavelength of 450 nm (control wavelength: 630 nm) was measured. Each test was conducted in triplicate (n=3).
Specifically, the degree of the respiratory activity (proportional to the number of cells) was measured as the absorbance (wavelength: 450 nm) of the solution by using the WST-8 reagent. Then, the presence or absence of the growth promoting effect was confirmed by determining increase or decrease in the absorbance of the sample-containing prepared medium by using the absorbance obtained by the assay of the blank medium as a reference (100%). As for the determination of the presence or absence of growth promotion, the “stem cell growth promoting effect was present” was determined provided that the rate of stem cell growth (rate of growth with respect to the blank) was 5% or more (score + or more) according to the score shown in Table 2 below.
as §2

[3] = applied concentration 0.01 mg/mL
[4] = applied concentration 0.1 mg/mL
[5] = applied concentration 1.0 mg/mL
[6] = applied concentration 0.001 mg/mL

Substance	Migration imparting effect, Evaluation (score) [1, 3]	Migration imparting effect, Ratio to blank (%) [1, 3] [%]	Migration imparting effect, Evaluation (score) [1, 4]	Migration imparting effect, Ratio to blank (%) [1, 4] [%]	Migration imparting effect, Evaluation (score) [1, 5]	Migration imparting effect, Ratio to blank (%) [1, 5] [%]	Growth promoting effect, Evaluation (score) [2, 3]	Growth promoting effect, Ratio to blank (%) [2, 3] [%]	Growth promoting effect, Evaluation (score) [2, 4]	Growth promoting effect, Ratio to blank (%) [2, 4] [%]	Growth promoting effect, Evaluation (score) [2, 5]	Growth promoting effect, Ratio to blank (%) [2, 5] [%]	Migration imparting effect, Evaluation (score) [1, 6]	Migration imparting effect, Ratio to blank (%) [1, 6] [%]
caprooyl tetrapeptide-3	+ (105 or more and less than 120)	109	+++ (130 or more and less than 140)	133	+++ (130 or more and less than 140)	132	++ (120 or more and less than 130)	120	++ (120 or more and less than 130)	123	+ (105 or more and less than 120)	117		
copper tripeptide-1	++ (120 or more and less than 130)	125	+++ (130 or more and less than 140)	131			+++ (130 or more and less than 140)	130	++++ (140 or more)	160			+++ (130 or more and less than 140)	130
